{"source": "ChEMBL document CHEMBL3046501", "about": "“Synthesis, characterization & anticonvulsant activity of amide derivatives of 4-amino-1,2-naphthoquinone” (Med Chem Res, 2013)", "key": {"Mus musculus [1]": {"tested_on": "Mus musculus", "assay": "Neurotoxicity in Swiss albino Mus musculus (mouse) assessed as minimal motor impairment at 30 mg/kg, ip after 4 hr", "type": "toxicity, organism-based", "design": "dose 30 mg/kg, route intraperitoneal", "details": "in vivo"}, "Mus musculus [2]": {"tested_on": "Mus musculus", "assay": "Anticonvulsant activity in Swiss albino Mus musculus (mouse) assessed as protection against subcutaneous pentylenetetrazol-induced seizures at 20 mg/kg, ip after 4 hr", "type": "functional, organism-based", "design": "dose 20 mg/kg"}, "Mus musculus [3]": {"tested_on": "Mus musculus", "assay": "Anticonvulsant activity in Swiss albino Mus musculus (mouse) assessed as protection against subcutaneous pentylenetetrazol-induced seizures at 10 mg/kg, ip after 4 hr", "type": "functional, organism-based", "design": "dose 10 mg/kg"}, "Mus musculus [4]": {"tested_on": "Mus musculus", "assay": "Anticonvulsant activity in Swiss albino Mus musculus (mouse) assessed as protection against maximal electroshock-induced seizures at 20 mg/kg, ip after 1 hr", "type": "functional, organism-based", "design": "dose 20 mg/kg"}, "Mus musculus [5]": {"tested_on": "Mus musculus", "assay": "Anticonvulsant activity in Swiss albino Mus musculus (mouse) assessed as protection against maximal electroshock-induced seizures at 20 mg/kg, ip after 4 hr", "type": "functional, organism-based", "design": "dose 20 mg/kg"}, "Mus musculus [6]": {"tested_on": "Mus musculus", "assay": "Anticonvulsant activity in Swiss albino Mus musculus (mouse) assessed as protection against maximal electroshock-induced seizures at 10 mg/kg, ip after 4 hr", "type": "functional, organism-based", "design": "dose 10 mg/kg"}, "Mus musculus [7]": {"tested_on": "Mus musculus", "assay": "Anticonvulsant activity in Swiss albino Mus musculus (mouse) assessed as protection against subcutaneous pentylenetetrazol-induced seizures at 40 mg/kg, ip after 0.5 hr", "type": "functional, organism-based", "design": "dose 40 mg/kg"}, "Mus musculus [8]": {"tested_on": "Mus musculus", "assay": "Anticonvulsant activity in Swiss albino Mus musculus (mouse) assessed as protection against maximal electroshock-induced seizures at 40 mg/kg, ip after 1 hr", "type": "functional, organism-based", "design": "dose 40 mg/kg"}, "Mus musculus [9]": {"tested_on": "Mus musculus", "assay": "Anticonvulsant activity in Swiss albino Mus musculus (mouse) assessed as protection against maximal electroshock-induced seizures at 5 mg/kg, ip after 1 hr", "type": "functional, organism-based", "design": "dose 5 mg/kg"}, "Mus musculus [10]": {"tested_on": "Mus musculus", "assay": "Anticonvulsant activity in Swiss albino Mus musculus (mouse) assessed as protection against subcutaneous pentylenetetrazol-induced seizures at 5 mg/kg, ip after 0.5 hr", "type": "functional, organism-based", "design": "dose 5 mg/kg"}, "Mus musculus [11]": {"tested_on": "Mus musculus", "assay": "Anticonvulsant activity in Swiss albino Mus musculus (mouse) assessed as protection against maximal electroshock-induced seizures at 5 mg/kg, ip after 3 hr", "type": "functional, organism-based", "design": "dose 5 mg/kg"}, "Mus musculus [12]": {"tested_on": "Mus musculus", "assay": "Anticonvulsant activity in Swiss albino Mus musculus (mouse) assessed as protection against subcutaneous pentylenetetrazol-induced seizures at 40 mg/kg, ip after 4 hr", "type": "functional, organism-based", "design": "dose 40 mg/kg"}, "Mus musculus [13]": {"tested_on": "Mus musculus", "assay": "Anticonvulsant activity in Swiss albino Mus musculus (mouse) assessed as protection against subcutaneous pentylenetetrazol-induced seizures at 20 mg/kg, ip after 0.5 hr", "type": "functional, organism-based", "design": "dose 20 mg/kg"}, "Mus musculus [14]": {"tested_on": "Mus musculus", "assay": "Anticonvulsant activity in Swiss albino Mus musculus (mouse) assessed as protection against maximal electroshock-induced seizures at 40 mg/kg, ip after 3 hr", "type": "functional, organism-based", "design": "dose 40 mg/kg"}, "Mus musculus [15]": {"tested_on": "Mus musculus", "assay": "Anticonvulsant activity in Swiss albino Mus musculus (mouse) assessed as protection against maximal electroshock-induced seizures at 20 mg/kg, ip after 3 hr", "type": "functional, organism-based", "design": "dose 20 mg/kg"}, "Mus musculus [16]": {"tested_on": "Mus musculus", "assay": "Anticonvulsant activity in Swiss albino Mus musculus (mouse) assessed as protection against maximal electroshock-induced seizures at 10 mg/kg, ip after 2 hr", "type": "functional, organism-based", "design": "dose 10 mg/kg"}, "Mus musculus [17]": {"tested_on": "Mus musculus", "assay": "Anticonvulsant activity in Swiss albino Mus musculus (mouse) assessed as protection against maximal electroshock-induced seizures at 10 mg/kg, ip after 1 hr", "type": "functional, organism-based", "design": "dose 10 mg/kg"}, "Mus musculus [18]": {"tested_on": "Mus musculus", "assay": "Anticonvulsant activity in Swiss albino Mus musculus (mouse) assessed as protection against maximal electroshock-induced seizures at 40 mg/kg, ip after 4 hr", "type": "functional, organism-based", "design": "dose 40 mg/kg"}, "Mus musculus [19]": {"tested_on": "Mus musculus", "assay": "Anticonvulsant activity in Swiss albino Mus musculus (mouse) assessed as protection against maximal electroshock-induced seizures at 40 mg/kg, ip after 2 hr", "type": "functional, organism-based", "design": "dose 40 mg/kg"}, "Mus musculus [20]": {"tested_on": "Mus musculus", "assay": "Anticonvulsant activity in Swiss albino Mus musculus (mouse) assessed as protection against maximal electroshock-induced seizures at 20 mg/kg, ip after 2 hr", "type": "functional, organism-based", "design": "dose 20 mg/kg"}, "Mus musculus [21]": {"tested_on": "Mus musculus", "assay": "Anticonvulsant activity in Swiss albino Mus musculus (mouse) assessed as protection against maximal electroshock-induced seizures at 10 mg/kg, ip after 3 hr", "type": "functional, organism-based", "design": "dose 10 mg/kg"}, "Mus musculus [22]": {"tested_on": "Mus musculus", "assay": "Anticonvulsant activity in Swiss albino Mus musculus (mouse) assessed as protection against subcutaneous pentylenetetrazol-induced seizures at 10 mg/kg, ip after 0.5 hr", "type": "functional, organism-based", "design": "dose 10 mg/kg"}}, "note": "Activity calls are given as the source filed them. No cut-off for these calls is given here."}
{"compound": "CCC(=O)NC1=CC(=O)C(=O)c2ccccc21", "values": [{"measurement": "Activity", "setting": "Mus musculus [1]", "result": "Non-toxic"}, {"measurement": "Activity", "setting": "Mus musculus [2]", "result": "inactive"}, {"measurement": "Activity", "setting": "Mus musculus [3]", "result": "inactive"}, {"measurement": "Activity", "setting": "Mus musculus [4]", "result": "Active"}, {"measurement": "Activity", "setting": "Mus musculus [5]", "result": "inactive"}, {"measurement": "Activity", "setting": "Mus musculus [6]", "result": "inactive"}]}
{"compound": "CC(C)C(=O)NC1=CC(=O)C(=O)c2ccccc21", "values": [{"measurement": "Activity", "setting": "Mus musculus [7]", "result": "Active"}, {"measurement": "Activity", "setting": "Mus musculus [8]", "result": "Active"}, {"measurement": "Activity", "setting": "Mus musculus [4]", "result": "Active"}]}
{"compound": "O=C1NC(=O)C(c2ccccc2)(c2ccccc2)N1", "values": [{"measurement": "Activity", "setting": "Mus musculus [9]", "result": "Active"}, {"measurement": "Activity", "setting": "Mus musculus [10]", "result": "Active"}, {"measurement": "Activity", "setting": "Mus musculus [11]", "result": "Active"}]}
{"compound": "CCCC(=O)NC1=CC(=O)C(=O)c2ccccc21", "values": [{"measurement": "Activity", "setting": "Mus musculus [12]", "result": "Active"}, {"measurement": "Activity", "setting": "Mus musculus [7]", "result": "Active"}, {"measurement": "Activity", "setting": "Mus musculus [13]", "result": "Active"}, {"measurement": "Activity", "setting": "Mus musculus [8]", "result": "Active"}, {"measurement": "Activity", "setting": "Mus musculus [4]", "result": "Active"}, {"measurement": "Activity", "setting": "Mus musculus [14]", "result": "Active"}, {"measurement": "Activity", "setting": "Mus musculus [6]", "result": "inactive"}, {"measurement": "Activity", "setting": "Mus musculus [15]", "result": "Active"}]}
{"compound": "CC(=O)Nc1ccc(C(=O)NC2=CC(=O)C(=O)c3ccccc32)cc1", "values": [{"measurement": "Activity", "setting": "Mus musculus [2]", "result": "inactive"}, {"measurement": "Activity", "setting": "Mus musculus [12]", "result": "Active"}, {"measurement": "Activity", "setting": "Mus musculus [7]", "result": "Active"}, {"measurement": "Activity", "setting": "Mus musculus [13]", "result": "Active"}, {"measurement": "Activity", "setting": "Mus musculus [16]", "result": "Active"}, {"measurement": "Activity", "setting": "Mus musculus [8]", "result": "Active"}, {"measurement": "Activity", "setting": "Mus musculus [4]", "result": "Active"}, {"measurement": "Activity", "setting": "Mus musculus [17]", "result": "Active"}, {"measurement": "Activity", "setting": "Mus musculus [18]", "result": "Active"}, {"measurement": "Activity", "setting": "Mus musculus [5]", "result": "Active"}, {"measurement": "Activity", "setting": "Mus musculus [19]", "result": "Active"}, {"measurement": "Activity", "setting": "Mus musculus [20]", "result": "Active"}]}
{"compound": "CC(=O)NCC(=O)NC1=CC(=O)C(=O)c2ccccc21", "values": [{"measurement": "Activity", "setting": "Mus musculus [3]", "result": "inactive"}, {"measurement": "Activity", "setting": "Mus musculus [17]", "result": "Active"}, {"measurement": "Activity", "setting": "Mus musculus [18]", "result": "inactive"}, {"measurement": "Activity", "setting": "Mus musculus [14]", "result": "inactive"}, {"measurement": "Activity", "setting": "Mus musculus [15]", "result": "Active"}]}
{"compound": "CC(C)CC(=O)NC1=CC(=O)C(=O)c2ccccc21", "values": [{"measurement": "Activity", "setting": "Mus musculus [7]", "result": "Active"}, {"measurement": "Activity", "setting": "Mus musculus [13]", "result": "Active"}, {"measurement": "Activity", "setting": "Mus musculus [8]", "result": "Active"}, {"measurement": "Activity", "setting": "Mus musculus [4]", "result": "Active"}, {"measurement": "Activity", "setting": "Mus musculus [14]", "result": "Active"}, {"measurement": "Activity", "setting": "Mus musculus [15]", "result": "Active"}, {"measurement": "Activity", "setting": "Mus musculus [21]", "result": "Active"}]}
{"compound": "CCCCCC(=O)NC1=CC(=O)C(=O)c2ccccc21", "values": [{"measurement": "Activity", "setting": "Mus musculus [12]", "result": "Active"}, {"measurement": "Activity", "setting": "Mus musculus [7]", "result": "Active"}, {"measurement": "Activity", "setting": "Mus musculus [13]", "result": "Active"}, {"measurement": "Activity", "setting": "Mus musculus [16]", "result": "Active"}, {"measurement": "Activity", "setting": "Mus musculus [4]", "result": "Active"}, {"measurement": "Activity", "setting": "Mus musculus [17]", "result": "Active"}, {"measurement": "Activity", "setting": "Mus musculus [18]", "result": "Active"}, {"measurement": "Activity", "setting": "Mus musculus [20]", "result": "Active"}]}
{"compound": "O=C1C=C(NC(=O)c2cccnc2)c2ccccc2C1=O", "values": [{"measurement": "Activity", "setting": "Mus musculus [16]", "result": "inactive"}, {"measurement": "Activity", "setting": "Mus musculus [5]", "result": "inactive"}, {"measurement": "Activity", "setting": "Mus musculus [6]", "result": "inactive"}]}
{"compound": "O=C1C=C(NC(=O)c2ccccc2)c2ccccc2C1=O", "values": [{"measurement": "Activity", "setting": "Mus musculus [3]", "result": "inactive"}, {"measurement": "Activity", "setting": "Mus musculus [16]", "result": "inactive"}, {"measurement": "Activity", "setting": "Mus musculus [22]", "result": "inactive"}, {"measurement": "Activity", "setting": "Mus musculus [5]", "result": "inactive"}, {"measurement": "Activity", "setting": "Mus musculus [6]", "result": "inactive"}]}
{"compound": "CC(=O)NC1=CC(=O)C(=O)c2ccccc21", "values": [{"measurement": "Activity", "setting": "Mus musculus [2]", "result": "inactive"}, {"measurement": "Activity", "setting": "Mus musculus [3]", "result": "inactive"}, {"measurement": "Activity", "setting": "Mus musculus [8]", "result": "Active"}, {"measurement": "Activity", "setting": "Mus musculus [4]", "result": "Active"}, {"measurement": "Activity", "setting": "Mus musculus [18]", "result": "inactive"}, {"measurement": "Activity", "setting": "Mus musculus [5]", "result": "inactive"}, {"measurement": "Activity", "setting": "Mus musculus [6]", "result": "inactive"}, {"measurement": "Activity", "setting": "Mus musculus [21]", "result": "inactive"}]}
